System: SARS-CoV-2 169 R
Type: cell-based

Compound | effect on viral load in 169 R-infected cultures (plaque assay)
CN1CCN(C[C@@H](O)CO[C@H]2CC[C@@]3(C)C(CCC4C3CC[C@]3(C)C(=O)CCC43)C2)CC1 (some centres unmarked) [LNB169] | no reduction in viral load
CN1CCN(C[C@H](O)CO[C@H]2CC[C@@]3(C)C(CCC4C3CC[C@]3(C)C(=O)CCC43)C2)CC1 (some centres unmarked) [LNB167] | no reduction in viral load

Reference: article PMC9235892 (Virulence, 2022)
